# Results as given in publication PMC12389269, “Heteroaryl-Capped Hydroxamic Acid Derivatives with Varied Linkers: Synthesis and Anticancer Evaluation with Various Apoptosis Analyses in Breast Cancer Cells, Including Docking, Simulation, DFT, and ADMET Studies” (Pharmaceuticals, 2025).
# Where two headings read alike, the source gives them in different places.
# Columns and labels:
# [1] = system: MCF-7 (Human Breast Cancer Cell Line); assay: SRB antiproliferative assay, MCF-7; type: cell-based
# Description: (§1) Following an extensive review of the literature, we selected human breast cancer (MCF-7, MDA-MB-231) and lung cancer (A549) cell lines to evaluate the anticancer potential of the synthesized compounds, and some compounds with good anti-proliferation activity were again tested to evaluate their cytotoxic potential on A-549, MCF-7, and MDA-MB-231. The same were also tested on one non-cancerous/normal (HEK-293) cell line. All the cell lines for the required screening were developed in a suitable medium comprising 10% FBS and 2mM L-glutamine. Cancerous and non-cancerous/normal cell lines were selected for the cell proliferation and cytotoxicity assay and maintained with 5% CO2 at 37 °C in a CO2 incubator with 100% relative humidity for one complete day before the addition of experimental drugs.
# (§2) Antiproliferative activity through an SRB assay was performed for all the synthesized compounds on A-549 and MCF-7 cell lines. Around 5000 cells/well were quarantined into a 96-well microtiter plate in 100 μL. The synthesized compounds were solubilized in DMSO and diluted to different concentrations before use. The final-drug-concentration aliquots were poured into microtiter wells, and the plates were incubated for 48 h in regular conditions. After adding the final drug concentration, the cells were allowed to set in place and incubated for 60 min. A total of 50 µL of SRB solution (0.4% w/v) in 1% CH3COOH was poured into each well. The plates were then incubated for 20 min at RT. During subsequent staining, the unbounded dye was removed, and the plate reader recorded the eluted bound stain at 540 nm with a 690 nm reference wavelength. The assay was performed precisely using the appropriate reagents and reaction situation, as per the reported procedure. ADR was selected as the reference drug.
# [2] = system: A-549 (Human Lung Cancer Cell Line); assay: SRB antiproliferative assay, A-549; type: cell-based
# Description: as §1, §2
# HDAC6 = target: T1, HDAC6 (Homo sapiens, UniProt Q9UBN7); assay: HDAC inhibition assay (color de lys ELISA kit), HDAC6; type: biochemical; settings: HeLa nuclear extract as source of HDAC activity
# T1 construct: The HeLa nuclear extract was used as a source of HDAC activity; host or cells: HeLa (nuclear extract / cells)
# T1 sequence (Q9UBN7 1-1215): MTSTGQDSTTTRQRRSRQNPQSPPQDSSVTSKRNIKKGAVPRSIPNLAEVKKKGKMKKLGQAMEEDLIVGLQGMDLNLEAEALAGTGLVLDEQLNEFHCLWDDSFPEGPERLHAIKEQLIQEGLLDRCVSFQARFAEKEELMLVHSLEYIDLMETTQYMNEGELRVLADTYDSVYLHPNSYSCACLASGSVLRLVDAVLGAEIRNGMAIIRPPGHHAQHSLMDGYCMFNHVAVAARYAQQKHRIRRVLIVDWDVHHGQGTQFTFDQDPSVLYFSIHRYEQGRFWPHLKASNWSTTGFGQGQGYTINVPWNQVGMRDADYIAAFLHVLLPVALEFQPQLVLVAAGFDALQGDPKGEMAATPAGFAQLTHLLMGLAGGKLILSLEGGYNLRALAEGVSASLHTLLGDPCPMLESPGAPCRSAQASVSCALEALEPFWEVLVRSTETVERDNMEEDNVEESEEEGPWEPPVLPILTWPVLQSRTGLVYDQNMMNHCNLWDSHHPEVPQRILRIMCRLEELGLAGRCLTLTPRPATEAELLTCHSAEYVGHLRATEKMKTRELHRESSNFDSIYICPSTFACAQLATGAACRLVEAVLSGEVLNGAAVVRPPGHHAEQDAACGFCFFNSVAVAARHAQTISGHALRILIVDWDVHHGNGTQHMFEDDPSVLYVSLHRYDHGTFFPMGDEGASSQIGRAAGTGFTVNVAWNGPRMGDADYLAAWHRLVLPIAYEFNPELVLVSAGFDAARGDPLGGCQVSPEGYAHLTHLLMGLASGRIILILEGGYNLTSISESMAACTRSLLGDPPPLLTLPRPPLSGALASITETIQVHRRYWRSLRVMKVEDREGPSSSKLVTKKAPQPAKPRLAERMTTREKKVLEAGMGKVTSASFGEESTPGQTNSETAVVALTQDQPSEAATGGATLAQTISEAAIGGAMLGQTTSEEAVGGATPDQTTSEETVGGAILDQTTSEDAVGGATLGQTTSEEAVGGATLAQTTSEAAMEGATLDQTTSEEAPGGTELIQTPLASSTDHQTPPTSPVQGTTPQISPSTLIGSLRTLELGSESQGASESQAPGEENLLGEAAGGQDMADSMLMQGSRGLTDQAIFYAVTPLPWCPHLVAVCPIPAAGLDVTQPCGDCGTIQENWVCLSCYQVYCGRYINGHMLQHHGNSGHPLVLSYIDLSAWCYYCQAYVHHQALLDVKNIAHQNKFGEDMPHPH
# Description: (§3) SAHA served as the assay’s positive control. The HeLa nuclear extract was used as a source of HDAC activity. The trypsinized HeLa cells were tallied, put into 96-well microtiter plates, and nurtured. Samples and the standard were placed in wells at a concentration of 100 µL. The culture environment was maintained as per the procedure. 3,3′,5,5′-tetramethylbenzidine (TMB) was included for visualization. Finally, 50 µL of halt solution was smeared. The samples and different SAHA concentrations (0.01, 0.1, 1, 10 μM) were introduced to the appropriate well and left for 72 h. BioTek Epoch (Winooski, VT, USA) microplate reader was used to quantify optical density at 450 nm. The Graph Pad Prism 5 helped to determine the IC50 values.
# HDAC1 = target: T2, HDAC1 (Homo sapiens, UniProt Q13547); assay: HDAC inhibition assay (color de lys ELISA kit), HDAC1; type: biochemical; settings: HeLa nuclear extract as source of HDAC activity
# T2 construct: The HeLa nuclear extract was used as a source of HDAC activity; host or cells: HeLa (nuclear extract / cells)
# T2 sequence (Q13547 whole entry): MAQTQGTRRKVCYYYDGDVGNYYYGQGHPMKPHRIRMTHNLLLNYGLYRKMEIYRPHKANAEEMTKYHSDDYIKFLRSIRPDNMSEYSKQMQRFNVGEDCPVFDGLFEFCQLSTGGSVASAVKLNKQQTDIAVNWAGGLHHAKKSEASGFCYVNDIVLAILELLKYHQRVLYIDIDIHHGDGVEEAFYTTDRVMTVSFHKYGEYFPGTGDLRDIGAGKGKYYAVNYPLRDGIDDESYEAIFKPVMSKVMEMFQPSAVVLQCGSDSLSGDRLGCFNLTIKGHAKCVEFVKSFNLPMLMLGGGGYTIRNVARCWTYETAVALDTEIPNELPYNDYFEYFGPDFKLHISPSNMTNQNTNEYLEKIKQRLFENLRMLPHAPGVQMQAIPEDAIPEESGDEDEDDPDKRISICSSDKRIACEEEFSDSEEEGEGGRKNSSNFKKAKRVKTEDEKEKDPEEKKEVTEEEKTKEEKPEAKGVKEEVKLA
# Description: as §3
# [3] = Homo sapiens, MCF7, MCF-7, 48 h, read-out: GI50
# [4] = Homo sapiens, A549, A-549, 48 h, read-out: GI50
"GI50 ([1]; MCF-7, 48 h) [µg/mL]","GI50 ([2]; A-549, 48 h) [µg/mL]","GI50 [1, 3] [µg/mL]","GI50 [2, 4] [µg/mL]",IC50 (HDAC6) [µM],IC50 (HDAC1) [µM],SMILES
<10,<10,–,–,–,–,"COc1cccc2c1C(=O)c1c(O)c3c(c(O)c1C2=O)C[C@@](O)(C(=O)CO)C[C@@H]3O[C@H]1C[C@H](N)[C@H](O)[C@H](C)O1 [ADR, reference compound]"
–,–,15.1,19.4,–,–,"COc1ccc(-c2cnn(-c3ccc(C(=O)CCC(=O)NO)cc3)n2)cc1 [VI(a), N-Hydroxy-4-(4-(4-(4-methoxyphenyl)-2H-1,2,3-triazol-2-yl)phenyl)-4-oxobutanamide]"
–,–,< 10,< 10,24.2,21.1,"O=C(CCC(=O)c1ccc(-n2ncc(-c3ccc([N+](=O)[O-])cc3)n2)cc1)NO [VI(b), N-Hydroxy-4-(4-(4-(4-nitrophenyl)-2H-1,2,3-triazol-2-yl)phenyl)-4-oxobutanamide]"
–,–,< 10,< 10,31.7,21.2,"O=C(CCC(=O)c1ccc(-n2ncc(-c3ccc(Cl)cc3)n2)cc1)NO [VI(c), 4-(4-(4-(4-Chlorophenyl)-2H-1,2,3-triazol-2-yl)phenyl)-N-hydroxy-4-oxobutanamide]"
–,–,12.9,14.7,–,–,"Cc1ccc(-c2cnn(-c3ccc(C(=O)CCC(=O)NO)cc3)n2)cc1 [VI(d), N-Hydroxy-4-oxo-4-(4-(4-(p-tolyl)-2H-1,2,3-triazol-2-yl)phenyl)butanamide]"
–,–,< 10,< 10,18.6,27.2,"O=C(CCC(=O)c1ccc(-n2ncc(-c3ccc(O)cc3)n2)cc1)NO [VI(e), N-Hydroxy-4-(4-(4-(4-hydroxyphenyl)-2H-1,2,3-triazol-2-yl)phenyl)-4-oxobutanamide]"
–,–,< 10,26.9,–,–,"O=C(CCC(=O)c1ccc(-n2ncc(-c3ccc(F)cc3)n2)cc1)NO [VI(f), 4-(4-(4-(4-Fluorophenyl)-2H-1,2,3-triazol-2-yl)phenyl)-N-hydroxy-4-oxobutanamide]"
–,–,15,53,–,–,"COc1ccc(-c2cnn(-c3ccc(C(=O)CCC(=O)NO)cc3)n2)cc1OC [VI(g), 4-(4-(4-(3,4-Dimethoxyphenyl)-2H-1,2,3-triazol-2-yl)phenyl)-N-hydroxy-4-oxobutanamide]"
–,–,50,> 80,–,–,"O=C(CCCCCn1ncc(-c2ccc(Cl)cc2)n1)NO [VI(h), 6-(4-(4-Chlorophenyl)-2H-1,2,3-triazol-2-yl)-N-hydroxyhexanamide]"
–,–,17,50,–,–,"O=C(CCCCCn1ncc(-c2ccc(O)cc2)n1)NO [VI(j), N-Hydroxy-6-(4-(4-hydroxyphenyl)-2H-1,2,3-triazol-2-yl)hexanamide]"
–,–,14.9,> 80,–,–,"Cc1ccc(-c2cnn(CCCCCC(=O)NO)n2)cc1 [VI(k), N-Hydroxy-6-(4-(p-tolyl)-2H-1,2,3-triazol-2-Yl)hexanamide]"
–,–,> 80,> 80,–,–,"O=C(CCc1ccc(-n2ncc(-c3ccc(Cl)cc3)n2)cc1)NO [VI(l), 3-(4-(4-(4-Chlorophenyl)-2H-1,2,3-triazol-2-Yl)phenyl)-N-hydroxypropanamide]"
–,–,> 80,> 80,–,–,"Cc1ccc(-c2cnn(-c3ccc(CCC(=O)NO)cc3)n2)cc1 [VI(m), N-Hydroxy-3-(4-(4-(p-tolyl)-2H-1,2,3-triazol-2-yl)phenyl)propanamide]"
–,–,> 80,> 80,–,–,"O=C(CCc1ccc(-n2ncc(-c3ccc(O)cc3)n2)cc1)NO [VI(n), N-Hydroxy-3-(4-(4-(4-hydroxyphenyl)-2H-1,2,3-triazol-2-yl)phenyl)propanamide]"
–,–,> 80,62,–,–,"COc1ccc(-c2cnn(-c3ccc(CCC(=O)NO)cc3)n2)cc1 [VI(o), N-Hydroxy-3-(4-(4-(4-methoxyphenyl)-2H-1,2,3-triazol-2-Yl)phenyl)propanamide]"
